Publication PMC5457628, “Inhibitors of ubiquitin E3 ligase as potential new antimalarial drug leads” (BMC Pharmacology & Toxicology, 2017)
Like-named read-outs stand apart in the source and are kept apart here.

What was measured:
[1] = In vitro cytotoxicity assay (AlamarBlue) against Vero cells; assay type: cell-based; details: African green monkey, Vero cells (kidney epithelial cells), mean ± SEM of duplicates, NC = not cytotoxic at highest concentration tested (50 μM inhibitors, 500 nM CQ), read-out: Vero Cell Cytotoxicity (IC50)
Experimental: The E3 ligase inhibitors were also tested against Vero cells (African green monkey kidney epithelial cells) and transformed non-dividing human monocytic (THP1) cells. The methods described earlier were used to measure cytotoxicity for Vero and THP1 cells. In brief, four days’ old Vero and THP1 cell cultures were diluted with RPMI medium to 25,000 cells/mL. Vero cells (100 μL per well) were seeded in a clear 96 well culture plate and incubated for 24 h at 37 °C in a 5% CO2 incubator to obtain confluent cells. Phorbol 12-myristate 13-acetate (PMA) (25 ng/mL) was added to THP1 cell culture to transform the cells to adherent macrophages. PMA treated THP1cells were dispensed into clear 96 well culture plates (200 μL/well; 25,000 cells/mL) and incubated at 37 °C in a 5% CO2 incubator for overnight. The test compounds were prepared in DMSO at 10 mM concentration. The compounds were serially diluted in RPMI medium with 2% FBS in the separate daughter plates, for testing at eight concentrations. The cells were washed with culture medium, replaced with the fresh medium and test compounds were added. The maximum concentration of E3 ligase inhibitors and CQ used in these assays were 50 μM and 500 nM respectively. DMSO was tested as vehicle control in these assays. The plates were incubated further in a CO2 incubator at 37 °C for 48 h. […]

[2] = system: P. falciparum D6 (CQ-sensitive strain); experiment: Antimalarial SYBR Green I-based fluorescence assay, PfD6; assay type: cell-based
Experimental: The medium of the culture was replaced every 48 h, flushed with a gas mixture of 90% N2, 5% CO2 and 5% O2 and incubated at 37 °C.
Only ring stages of the parasite were counted and adjusted to 2% parasitemia with 2% hematocrit. Stock solutions (10 mM) of the test inhibitors were prepared in DMSO. […] The maximum concentrations of E3 ligase inhibitors and CQ used in the assay were 50 μM and 500 nM respectively. The plates were incubated at 37 °C in 5% CO2, 5% O2, and 90% N2 environment for 48, 72, 96 and 120 h. After incubation, SYBR green with RBC lysis buffer was added to each well, and the plates were incubated for 1 h in the dark at room temperature. The standard antimalarial agent, CQ was tested as the positive control, and DMSO was tested as vehicle control. […] The anti-malarial activity (expressed as IC50 values) was determined by the dose-response analysis with XLfit©.

[3] = system: P. falciparum W2 (CQ-resistant strain); experiment: Antimalarial SYBR Green I-based fluorescence assay, PfW2; assay type: cell-based; details: Plasmodium falciparum
Experimental: CQ-sensitive (D6, Sierra Leone) and -resistant (W2, Indochina) strains of P. falciparum cultures were obtained from Malaria Research and Reference Reagent Resource Center (MR4), USA and maintained at 5% hematocrit in complete culture medium (RPMI 1640 supplemented with 60 μg/mL amikacin, 27 mM NaHCO3 and 10% heat-inactivated normal human type A+ serum). The medium of the culture was replaced every 48 h, flushed with a gas mixture of 90% N2, 5% CO2 and 5% O2 and incubated at 37 °C.
CQ-sensitive P. falciparum D6 strain (Pf D6) and CQ-resistant P. falciparum W2 strain (Pf W2) were grown in RPMI 1640 medium supplemented with amikacin (60 μg/mL), NaHCO3 (27 mM) and 10% heat-inactivated normal human type A+ serum. Only ring stages of the parasite were counted and adjusted to 2% parasitemia with 2% hematocrit. Stock solutions (10 mM) of the test inhibitors were prepared in DMSO. The compounds were serially diluted in serum-free RPMI-1640 medium for testing at eight concentrations. The maximum concentrations of E3 ligase inhibitors and CQ used in the assay were 50 μM and 500 nM respectively. The plates were incubated at 37 °C in 5% CO2, 5% O2, and 90% N2 environment for 48, 72, 96 and 120 h. After incubation, SYBR green with RBC lysis buffer was added to each well, and the plates were incubated for 1 h in the dark at room temperature. The standard antimalarial agent, CQ was tested as the positive control, and DMSO was tested as vehicle control. Standard fluorescence was measured Fluostar Galaxy microplate reader (BMG Lab Technologies) at excitation wavelength of 485 nm and emission wavelength of 535 nm. The anti-malarial activity (expressed as IC50 values) was determined by the dose-response analysis with XLfit©.

[4] = In vitro cytotoxicity assay (AlamarBlue) against PMA-transformed THP1 cells; assay type: cell-based; details: human, PMA-transformed non-dividing THP1, mean ± SEM of duplicates, NC = not cytotoxic at highest concentration tested (50 μM inhibitors, 500 nM CQ), read-out: THP1 Cell Cytotoxicity (IC50)
Experimental: The E3 ligase inhibitors were also tested against Vero cells (African green monkey kidney epithelial cells) and transformed non-dividing human monocytic (THP1) cells. The methods described earlier were used to measure cytotoxicity for Vero and THP1 cells. In brief, four days’ old Vero and THP1 cell cultures were diluted with RPMI medium to 25,000 cells/mL. Vero cells (100 μL per well) were seeded in a clear 96 well culture plate and incubated for 24 h at 37 °C in a 5% CO2 incubator to obtain confluent cells. Phorbol 12-myristate 13-acetate (PMA) (25 ng/mL) was added to THP1 cell culture to transform the cells to adherent macrophages. PMA treated THP1cells were dispensed into clear 96 well culture plates (200 μL/well; 25,000 cells/mL) and incubated at 37 °C in a 5% CO2 incubator for overnight. The test compounds were prepared in DMSO at 10 mM concentration. The compounds were serially diluted in RPMI medium with 2% FBS in the separate daughter plates, for testing at eight concentrations. The cells were washed with culture medium, replaced with the fresh medium and test compounds were added. The maximum concentration of E3 ligase inhibitors and CQ used in these assays were 50 μM and 500 nM respectively. DMSO was tested as vehicle control in these assays. The plates were incubated further in a CO2 incubator at 37 °C for 48 h. After 48 h, 10 μL of AlamarBlue® was added to each well, and the plates were incubated in a CO2 incubator at 37 °C for overnight. […] IC50 values were computed by analyzing dose-response curves with XLfit©.

[5] = system: P. falciparum D6 strain (PfD6); experiment: Stage specific imaging analysis: parasitemia and differential stage counts in synchronized PfD6 culture (Giemsa smears); assay type: cell-based, Plasmodium falciparum; details: CQ 50 nM; for effect on parasitemia as compared to vehicle control: HLI 373 5 μM, Nutlin 3 35 μM; for overall parasitemia: synchronized PfD6, ~6% parasitemia at 0 h, JNJ 26854165 5 μM
Experimental: The stage-specific activity of the lead compounds was tested against Pf D6. […] The culture was synchronized by 5% sorbitol treatment as previously described. The synchronized culture of PfD6, with ~6% parasitemia and >90% of the parasite in ring stage, was used for these assays. Stock solutions (10 mM) of the test inhibitors were prepared in DMSO. […] The effect of the compounds was monitored after every 8 h (0, 8, 16, 24, 32, 40 and 48 h) by preparing thin smears of the infected erythrocytes. The slides were stained with Giemsa, and digital images of the parasite were captured with Nikon Eclipse microscope under bright field using NIS-element imaging software. The images were analyzed for the parasite stages and morphological changes (if any) in the parasite. The levels of parasitemia and differential parasitemia (relative percentage of different parasite stages) counts were also measured. At least one thousand erythrocytes (total- infected & uninfected) were counted from each slide for determination of the level of parasitemia and differential parasite stage counts.

MDM2 = details: read-out: Ki, MDM 2 inhibitor; cited from earlier work
[6] = Plasmodium falciparum, D6; 48 h incubation; mean ± SEM of duplicates; NA = not active at highest concentration tested (50 μM inhibitors, 500 nM CQ); read-out: P. falciparum D6 (CQ-sensitive strain) IC50
[7] = Plasmodium falciparum, D6; 72 h incubation; mean ± SEM of duplicates; NA = not active at highest concentration tested (50 μM inhibitors, 500 nM CQ); read-out: P. falciparum D6 (CQ-sensitive strain) IC50
[8] = W2, 48 h incubation, mean ± SEM of duplicates, NA = not active at highest concentration tested (50 μM inhibitors, 500 nM CQ), read-out: P. falciparum W2 (CQ-resistant strain) IC50
[9] = W2, 72 h incubation, mean ± SEM of duplicates, NA = not active at highest concentration tested (50 μM inhibitors, 500 nM CQ), read-out: P. falciparum W2 (CQ-resistant strain) IC50
[10] = W2, 96 h incubation, mean ± SEM of duplicates, NA = not active at highest concentration tested (50 μM inhibitors, 500 nM CQ), read-out: P. falciparum W2 (CQ-resistant strain) IC50
[11] = W2, 120 h incubation, mean ± SEM of duplicates, NA = not active at highest concentration tested (50 μM inhibitors, 500 nM CQ), read-out: P. falciparum W2 (CQ-resistant strain) IC50
[12] = Plasmodium falciparum, D6; 48-120 h; read-out: IC50 against PfD6
[13] = Plasmodium falciparum, D6; 96 h incubation; mean ± SEM of duplicates; NA = not active at highest concentration tested (50 μM inhibitors, 500 nM CQ); read-out: P. falciparum D6 (CQ-sensitive strain) IC50
[14] = Plasmodium falciparum, D6; 120 h incubation; mean ± SEM of duplicates; NA = not active at highest concentration tested (50 μM inhibitors, 500 nM CQ); read-out: P. falciparum D6 (CQ-sensitive strain) IC50
[15] = W2, 48-120 h, read-out: IC50 against PfW2
[16] = 40 h post-treatment, vehicle control 6.90
[17] = 48 h post-treatment, vehicle control 5.28%
[18] = Plasmodium falciparum, D6, 48 h; read-out: IC90 against PfD6 (concentration almost equivalent to IC90)

Compound | IC50 at 48 h [1] [µM] | IC50 [2, 6] [µM] | IC50 [2, 7] [µM] | IC50 [3, 8] [µM] | IC50 [3, 9] [µM] | IC50 [3, 10] [µM] | IC50 [3, 11] [µM] | IC50 at 48 h [4] [µM] | IC50 [2, 12] [µM] | IC50 [2, 13] [µM] | IC50 [2, 14] [µM] | IC50 [3, 15] [µM] | effect on parasitemia as compared to vehicle control ([5]; 40 h post-treatment) | overall parasitemia [5, 16] [%] | overall parasitemia [5, 17] [%] | IC90 [2, 18] [µM] | also measured
O=C1c2ccccc2-c2nc3nonc3nc21 [SMER 3] | 16 ± 0.55 | 12.1 ± 0.68 | 49 ± 0.94 | 20.6 ± 5.19 | 23.7 ± 3.53 | 45.8 ± 0.09 | 48.6 ± 0.49 | 5.8 ± 0.28 | – | – | – | – | – | – | – | – | –
CCc1c2ccccc2c(CSC(=N)N)c2ccccc12 [NSC 146109] | 5.27 ± 0.05 | 5.24 ± 0.2 | 4.8 ± 0.05 | 2.07 ± 0.22 | 2.63 ± 0.05 | 2.91 ± 0.03 | 3.23 ± 0.03 | 1.2 ± 0.28 | < 6 | 3.09 ± 0.08 | 2.52 ± 0.39 | < 6 | – | – | – | – | –
CCN(CC)CCCC(C)Nc1ccnc2cc(Cl)ccc12 (centres unmarked) [Chloroquine] | – | – | – | – | – | – | – | – | – | – | – | – | significantly decreased the overall parasitemia | 2.40 | 1.92 | – | IC90 ([2]; Plasmodium falciparum, D6, 48 h, read-out: IC90 against PfD6 (concentration almost equivalent to IC90)): ~0.05 µM; IC50 ([2]; Plasmodium falciparum, D6, 48 h, read-out: P. falciparum D6 (CQ-sensitive strain) IC50): 0.03 ± 0.001 µM; IC50 ([2]; Plasmodium falciparum, D6, 72 h, read-out: P. falciparum D6 (CQ-sensitive strain) IC50): 0.02 ± 0.004 µM; IC50 ([2]; Plasmodium falciparum, D6, 96 h, read-out: P. falciparum D6 (CQ-sensitive strain) IC50): 0.02 ± 0.001 µM; IC50 ([2]; Plasmodium falciparum, D6, 120 h, read-out: P. falciparum D6 (CQ-sensitive strain) IC50): 0.02 ± 0.001 µM; IC50 ([3]; W2, 48 h, read-out: P. falciparum W2 (CQ-resistant strain) IC50): 0.19 ± 0.004 µM; IC50 ([3]; W2, 72 h, read-out: P. falciparum W2 (CQ-resistant strain) IC50): 0.19 ± 0.007 µM; IC50 ([3]; W2, 96 h, read-out: P. falciparum W2 (CQ-resistant strain) IC50): 0.2 ± 0.001 µM; IC50 ([3]; W2, 120 h, read-out: P. falciparum W2 (CQ-resistant strain) IC50): 0.19 ± 0.002 µM; parasites arrested at ring stage ([5]; 40 and 48 h post-treatment): more than 50%; parasites arrested at ring stage ([5]; 16 h post-treatment): around 50%
COc1ccc(C2=N[C@@H](c3ccc(Cl)cc3)[C@@H](c3ccc(Cl)cc3)N2C(=O)N2CCNC(=O)C2)c(OC(C)C)c1 (racemic) [Nutlin 3] | – | 12.8 ± 1.34 | 19.4 ± 0.34 | 18.6 ± 1.6 | 15.72 ± 0.04 | 15.4 ± 0.54 | 15.6 ± 2.17 | 35.2 ± 2.76 | – | 15.9 ± 1.24 | 20 ± 4.52 | – | significantly reduced | – | – | ~35 | –
c1ccc2c(CCNc3ccc(Nc4ccncc4)cc3)c[nH]c2c1 [JNJ 26854165, Serdemetan] | – | 2.17 ± 0.004 | 2.93 ± 0.03 | 1.86 ± 0.03 | 1.74 ± 0.27 | 2.28 ± 0.03 | 2.02 ± 0.36 | 22.4 ± 0.56 | < 6 | 1.41 ± 0.03 | 1.46 ± 0.12 | < 6 | – | 1.90 | 1.76 | ~5 | –
Cc1ccc2ccc(C(Nc3ccccc3)c3ccccc3)c(O)c2n1 (centres unmarked) [NSC 66811] | – | 32.2 ± 4.57 | 37 ± 1.8 | 28.7 ± 4.01 | 39 ± 2.71 | – | – | 37.8 ± 4.1 | – | – | – | – | – | – | – | – | Ki (MDM2): 0.12 µM
